Where a name gives a salt, the structure may show the parent alone.

T1 sequence (P00533 with tags, fused parts or gaps DEL746-750/T790M limits assumed): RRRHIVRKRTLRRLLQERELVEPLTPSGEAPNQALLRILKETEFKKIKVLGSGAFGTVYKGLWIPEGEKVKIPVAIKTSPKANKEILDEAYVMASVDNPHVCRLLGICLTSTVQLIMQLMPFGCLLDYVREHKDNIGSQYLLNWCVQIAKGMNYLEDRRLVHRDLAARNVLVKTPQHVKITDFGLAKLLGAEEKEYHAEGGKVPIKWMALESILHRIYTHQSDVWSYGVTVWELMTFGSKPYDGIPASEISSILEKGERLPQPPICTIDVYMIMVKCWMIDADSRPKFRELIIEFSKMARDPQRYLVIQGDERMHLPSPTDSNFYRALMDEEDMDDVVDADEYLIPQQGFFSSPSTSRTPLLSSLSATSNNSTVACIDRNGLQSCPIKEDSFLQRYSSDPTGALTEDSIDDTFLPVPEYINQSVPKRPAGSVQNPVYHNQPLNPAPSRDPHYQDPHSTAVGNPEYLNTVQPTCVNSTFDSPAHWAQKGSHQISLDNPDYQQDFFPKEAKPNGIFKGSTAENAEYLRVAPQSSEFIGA

This test addresses T1, EGFR del746-750 T790M (Homo sapiens, UniProt P00533, DEL746-750/T790M).
T1 construct: purchased Carna Biosciences 08-528
Description: EGFR del746-750 T790M biochemical assay (Caliper mobility shift). The settings on record: 5 μM ATP, 30 min, room temperature; apparent Ki (Morrison) converted by Cheng-Prusoff, Km of ATP 2.1 μM; read-out: EGFR(T790M/d746-750) Ki.
With `CO[C@H]1CCN(c2nccc(Nc3cc4c(cn3)nc(C)n4C(C)C)n2)C[C@H]1F` (racemic) [Example 607, [2-((3RS,4SR)-3-Fluoro-4-methoxypiperidin-1-yl)pyrimidin-4-yl]-(1-isopropyl-2-methyl-1H-imidazo[4,5-c]pyridin-6-yl)amine], the Ki was determined as 41.1 nM.
On to `CC(n1cc(C(=O)NC2CCOCC2)c2cnc(Nc3ccnc(N4CCC(C)(O)CC4)n3)cc21)C(F)(F)F` (centres unmarked) [Example 636, 6-(2-(4-Hydroxy-4-methylpiperidin-1-yl)pyrimidin-4-ylamino)-N-(tetrahydro-2H-pyran-4-yl)-1-(1,1,1-trifluoropropan-2-yl)-1H-pyrrolo[3,2-c]pyridine-3-carboxamide], for which the Ki worked out at 14.4 nM.
As for `COC1CCN(c2nccc(Nc3cc4c(cn3)nc(CN(C)C)n4C(C)C)n2)CC1` [Example 9, (2-Dimethylaminomethyl-1-isopropyl-1H-imidazo[4,5-c]pyridin-6-yl)-[2-(4-methoxypiperidin-1-yl)pyrimidin-4-yl]amine formate salt], the figure is 417 nM; as for `CC(C)n1c(CO)nc2cnc(Nc3ccnc(N4CC[C@H](O)[C@H](C(F)(F)F)C4)n3)cc21` (racemic) [Example 626, (±)-(cis)-1-(4-(2-(Hydroxymethyl)-1-isopropyl-1H-imidazo[4,5-c]pyridin-6-ylamino)pyrimidin-2-yl)-3-(trifluoromethyl)piperidin-4-ol], 1250 nM.
As for `CC(C)n1c(CO)nc2cnc(Nc3ccnc(N4CCC(O)(C(F)(F)F)CC4)n3)cc21` [Example 669], the figure is 234 nM; as for `CC(C)n1cc(C(=O)NC2COC2)c2cnc(Nc3ccnc(-c4cnn(S(=O)(=O)C5CC5)c4)n3)cc21` [Example 386, 6-((2-(1-(cyclopropylsulfonyl)-1H-pyrazol-4-yl)pyrimidin-4-yl)amino)-1-isopropyl-N-(oxetan-3-yl)-1H-pyrrolo[3,2-c]pyridine-3-carboxamide], 1.11 nM.
The value for `CNc1nc(C)c(-c2nccc(Nc3cc4c(cn3)nc(C)n4C(C)C)n2)s1` [Example 611, (1-Isopropyl-2-methyl-1H-imidazo[4,5-c]pyridin-6-yl)-[2-(4-methyl-2-methylaminothiazol-5-yl)pyrimidin-4-yl]amine] was 0.773 nM; that for `Cc1nc2cnc(Nc3ccnc(N4CC[C@H](F)C4)n3)cc2n1C(C)C` [Example 592, [2-((S)-3-Fluoropyrrolidin-1-yl)pyrimidin-4-yl]-(1-isopropyl-2-methyl-1H-imidazo[4,5-c]pyridin-6-yl)amine] was 57.5 nM.
In the case of `CC(C)n1c(CO)nc2cnc(Nc3ccnc(-c4cnc(N)s4)n3)cc21` [Example 615, {6-[2-(2-Aminothiazol-5-yl)pyrimidin-4-ylamino]-1-isopropyl-1H-imidazo[4,5-c]pyridin-2-yl}methanol], the Ki came to 3.38 nM.
As for `C[C@H](n1c(CO)nc2cnc(Nc3ccnc(N4CC[C@H](O)[C@H](F)C4)n3)cc21)C(F)(F)F` [Example 667], the figure is 5.65 nM.
For `Cc1nc2cnc(Nc3ccnc(N4CC[C@H]([S+](C)[O-])[C@H](F)C4)n3)cc2n1C(C)C` (mixture of isomers) [Example 618, [2-(±)-(cis-3-Fluoro-4-methanesulfinylpiperidin-1-yl)pyrimidin-4-yl]-(1-isopropyl-2-methyl-1H-imidazo[4,5-c]pyridin-6-yl)amine], the Ki was 236 nM.
The value for `CC(C)n1cc(-c2cnn(CC(N)=O)c2)c2cnc(Nc3ccnc(-c4cnn(S(=O)(=O)C5CC5)c4)n3)cc21` [Example 331, 2-(4-(6-((2-(1-(Cyclopropylsulfonyl)-1H-pyrazol-4-yl)pyrimidin-4-yl)amino)-1-isopropyl-1H-pyrrolo[3,2-c]pyridin-3-yl)-1H-pyrazol-1-yl)acetamide] was 2.83 nM.
As for `CC(C)n1c(CO)nc2cnc(Nc3ccnc(N4CC[C@H](O)[C@](C)(F)C4)n3)cc21` (racemic) [Example 645, (3RS,4SR)-3-Fluoro-1-(4-((2-(hydroxymethyl)-1-isopropyl-1H-imidazo[4,5-c]pyridin-6-yl)amino)pyrimidin-2-yl)-3-methylpiperidin-4-ol], the Ki was found to be 68.7 nM.
The value for `COC1CCN(c2nccc(Nc3cc4c(cn3)nc3n4C(C)(C)CO3)n2)CC1` [Example 532, N-(2-(4-methoxypiperidin-1-yl)pyrimidin-4-yl)-3,3-dimethyl-2,3-dihydrooxazolo[3′,2′:1,2]imidazo [4,5-c]pyridin-6-amine] was 519 nM; that for `CCC(C)n1cc(C(=O)NC2COCCOC2)c2cnc(Nc3ccnc(-c4cnn(S(=O)(=O)C5CC5)c4)n3)cc21` (centres unmarked) [Example 700] was 1.65 nM; that for `CO[C@H]1CCN(c2nccc(Nc3cc4c(cn3)c(-c3nn(CCO)cc3C)cn4C(C)C)n2)C[C@H]1F` [Example 348, 2-(3-(6-((2-((3R,4S)-3-Fluoro-4-methoxypiperidin-1-yl)pyrimidin-4-yl)amino)-1-isopropyl-1H-pyrrolo[3,2-c]pyridin-3-yl)-4-methyl-1H-pyrazol-1-yl)ethanol] was 19.6 nM.
As for `Cc1cc(-c2nccc(Nc3cc4c(cn3)nc(C)n4C(C)C)n2)sn1` [Example 360, 1-Isopropyl-2-methyl-N-(2-(3-methylisothiazol-5-yl)pyrimidin-4-yl)-1H-imidazo[4,5-c]pyridin-6-amine], the Ki is 29.7 nM.
As for `CO[C@H]1CCN(c2nccc(Nc3cc4c(cn3)nc(CO)n4C(C)C)n2)C[C@H]1F` (racemic) [Example 526, (±)-{6-[2-((cis)-3-Fluoro-4-methoxypiperidin-1-yl)pyrimidin-4-ylamino]-1-isopropyl-1H-imidazo[4,5-c]pyridin-2-yl}methanol], the Ki turned out to be 50.5 nM.
The value for `COC1CCN(c2nccc(Nc3cc4c(cn3)c(-c3cc[nH]n3)cn4C(C)C)n2)CC1` [Example 64] was 1.2 nM.
For `CO[C@H]1CCN(c2nccc(Nc3cc4c(cn3)nc([C@@H](C)O)n4[C@@H](C)C(F)(F)F)n2)C[C@H]1F` [Example 288, (R)-1-[6-[2-((3R,4S)-3-Fluoro-4-methoxypiperidin-1-yl)-pyrimidin-4-ylamino]-1-((S)-2,2,2-trifluoro-1-methylethyl)-1H-imidazo[4,5-c]pyridin-2-yl]ethanol], the Ki worked out at 4 nM.
For the molecule `CS[C@H]1CCN(c2nccc(Nc3cc4c(cn3)nc(CO)n4C(C)C)n2)C[C@H]1F` (racemic) [Example 622, (±)-{6-[2-(cis-3-Fluoro-4-methylsulfanylpiperidin-1-yl)pyrimidin-4-ylamino]-1-isopropyl-1H-imidazo[4,5-c]pyridin-2-yl}methanol], the Ki was 170 nM.
As for `CCNc1nc2cnc(Nc3ccnc(-c4cnn(S(=O)(=O)C5CC5)c4)n3)cc2n1C(C)C` [Example 556], the figure is 3.85 nM; as for `C[C@@H](O)c1nc2cnc(Nc3ccnc(N4CC[C@@H](O)[C@@H](F)C4)n3)cc2n1[C@H](C)C(F)(F)F` [Example 687], 107 nM; as for `Cc1nc2cnc(Nc3ccnc(N4CCC(OC(F)F)CC4)n3)cc2n1C(C)C` [Example 549, [2-(4-Difluoromethoxypiperidin-1-yl)pyrimidin-4-yl]-(1-isopropyl-2-methyl-1H-imidazo[4,5-c]pyridin-6-yl)amine], 143 nM.
Consider `COCc1nc2cnc(Nc3ccnc(-c4cnn(S(=O)(=O)C5CC5)c4)n3)cc2n1C(C)C` [Example 279, [2-(1-Cyclopropanesulfonyl-1H-pyrazol-4-yl)-pyrimidin-4-yl]-(1-isopropyl-2-methoxymethyl-1H-imidazo[4,5-c]pyridin-6-yl)amine], for which the Ki turned out to be 6.87 nM.
As for `CC(C)n1c(CO)nc2cnc(Nc3ccnc(-c4cnn(S(=O)(=O)C5CC5)c4)n3)cc21` [Example 272, {6-[2-(1-Cyclopropanesulfonyl-1H-pyrazol-4-yl)pyrimidin-4-ylamino]-1-isopropyl-1H-imidazo[4,5-c]pyridin-2-yl}methanol], the figure is 2.12 nM; as for `CC(C)n1cnc2cnc(Nc3ccnc(NCC(C)(C)C(N)=O)n3)cc21` [Example 85, 3-(4-(1-isopropyl-1H-imidazo[4,5-c]pyridin-6-ylamino)pyrimidin-2-ylamino)-2,2-dimethylpropanamide], 20.8 nM; as for `C[C@H](n1c([C@@H](C)O)nc2cnc(Nc3ccnc(NCC(C)(C)S(C)(=O)=O)n3)cc21)C(F)(F)F` [Example 663], 14.5 nM.
The value for `CC(C)n1c(CO)nc2cnc(Nc3ccnc(N4CC5CC4C5)n3)cc21` [Example 692] was 140 nM; that for `COC1CCN(c2nccc(Nc3cc4c(cn3)nc(CO)n4C(C)C)n2)CC1` [Example 10, {1-Isopropyl-6-[2-(4-methoxypiperidin-1-yl)pyrimidin-4-ylamino]-1H-imidazo[4,5-c]pyridin-2-yl}methanol] was 63.2 nM; that for `CC(C)n1c(C(C)(C)O)nc2cnc(Nc3ccnc(-c4cnn(S(=O)(=O)C5CC5)c4)n3)cc21` [Example 563, 2-{6-[2-(1-Cyclopropanesulfonyl-1H-pyrazol-4-yl)pyrimidin-4-ylamino]-1-isopropyl-1H-imidazo[4,5-c]pyridin-2-yl} propan-2-ol] was 11.1 nM.
As to `CO[C@@H]1CCN(c2nccc(Nc3cc4c(cn3)nc(CO)n4C(C)C)n2)C[C@H]1C` [Example 699], the Ki was 305 nM.
On to `Cc1nc2cnc(Nc3ccnc(-c4cnn(S(=O)(=O)C(C)C)c4)n3)cc2n1C(C)C` [Example 409, 1-isopropyl-N-(2-(1-(isopropylsulfonyl)-1H-pyrazol-4-yl)pyrimidin-4-yl)-2-methyl-1H-imidazo[4,5-c]pyridin-6-amine], for which the Ki was 1.97 nM.
`CO[C@H]1CCN(c2nccc(Nc3cc4c(cn3)nc(C)n4C(C)C)n2)C[C@@H]1F` (racemic) [Example 525, (±)-[2-((trans)-3-Fluoro-4-methoxypiperidin-1-yl)pyrimidin-4-yl]-(1-isopropyl-2-methyl-1H-imidazo[4,5-c]pyridin-6-yl)amine]: the Ki stood at 222 nM.
For the molecule `Cc1nc2cnc(Nc3ccnc(N4CC[C@@](C)(O)[C@H](F)C4)n3)cc2n1C(C)C` [Example 674], the Ki worked out at 73 nM.

The record behind these values is patent publication US9890152B2 (Genentech, Inc., priority 2012, dated 2018).
